Reference: patent EP0099121A2, “Pharmaceutical compositions” (Bristol-Myers Company, priority 1982, dated 1984)
Where two headings read alike, the source gives them in different places.

What was measured:
Gastric Acid Output = assay: Gastric antisecretory activity in the Gastric Fistula Rat (Table 2 title: Two-Hour Pylorus Ligated Rat); format: in vivo, Long Evans rats; conditions: numbers in parentheses are the 95% confidence limits
Experimental: Male Long Evans rats weighing about 240-260 grams at the time of cannula implantation are used. The design and implantation of the stainless steel cannula into the anterior wall of the fore-stomach are carried out essentially as described by Pare et al. [Laboratory Animal Science, 27, 244 (1977)]. The fistula components are designed and the operative procedure is carried out exactly as described in the above reference. Post operatively the animals are individually housed in solid bottom cages with sawdust and are allowed food and water ad libitum throughout the entire recovery period. Animals are not used for test purposes for at least 15 days after the operative procedure.
The animals are fasted but allowed water ad libitum for 20 hours before the testing procedure is to begin. Immediately prior to collection, the cannula is opened and the stomach washed gently with 30-40 mL of warm saline or distilled water to remove any residual contents. The catheter is then screwed into the cannula in place of the plugging screw and the rat is placed in a clear plastic rectangular cage measuring 40 cm long, 15 cm wide and 13 cm high. The bottom of the cage has a slit approximately 1.5 cm wide and 25 cm long running down the center to accommodate the catheter which hangs through it. In this way the rat is not restricted and can move freely about the cage during collection periods. The remainder of the assay is carried out as described by Ridley et al. [Research Comm. Chem. Path. Pharm., 17, 365 (1977)].
Gastric secretions collected during the first hour after washing the stomach are discarded as they may be contaminated. For oral evaluation, the catheter is then removed from the cannula and replaced with the plugging screw. Water (2 mL/kg) is administered orally via gastric intubation and the animal is returned to the cage for 45 minutes. After this time the plugging screw is removed and replaced with a catheter to which a small plastic vial has been attached to collect the gastric secretions. A two hour sample is collected (this represents the control secretion), the catheter removed and replaced with the plugging screw. The test drug is now administered orally in a volume of 2 mL/kg via gastric intubation. Forty-five minutes later the plugging screw is again removed, replaced with the catheter attached to a small plastic vial and another 2 hour sample is collected. The secretions in the second sample are compared to those of the control sample in order to determine the effects of the test drug.
When test compounds are to be evaluated parenterally, the animal is injected ip or sc with the test compound vehicle in a volume of 2 mL/kg immediately after discarding the initial 60 minute collection. A two hour sample is collected (control secretion) and the animals are injected either ip or sc with the test compound in a volume of 2 mL/kg. An additional two hour sample is collected and its secretions are compared to those of the control period to determing drug effects.
The samples are centrifuged in a graduated tube for volume determination. Titratable acidity is measured by titrating a one mL sample to pH 7.0 with 0.02N NaOH, using an Autoburet and an electrometric pH meter (Radiometer). Titratable acid output is calculated in microequivalents by multiplying the volume in milliliters by the acid concentration in milliequivalents per liter.
(§1) Results are expressed as percent inhibition relative to control readings. Dose response curves are constructed and ED values are calculated by regression analyses. At least three rats are used at each dosage level and a minimum of three dosage levels are utilized for determination of a dose response curve.

acid output = assay: Gastric antisecretory activity in the Heidenhain Pouch Dog; format: in vivo, dogs; conditions: for Potency Ratio (cimetidine = 1.0): oral
Experimental: Prior to surgery, hematology and blood chemistry profiles are obtained and an assessment made as to the general health of selected female dogs. Dogs are vaccinated with Tissue Vax 5 (DHLP - Pitman-Moore) and housed in general animal quarters for four weeks' observation so incipient diseases may become apparent. Dogs are fasted with water ad libitum 24 hours prior to surgery.
Anesthesia is induced with Sodium Pentothal (Abbott) 25-30 mg/kg iv. Subsequent anesthesia is maintained with methoxy- flurane (Pitman-Moore). A mid-line linea alba incision from xiphoid to umbilicus provides good exposure and ease of closure. The stomach is pulled up into the operative field, the greater curvature stretched out at multiple points and clamps placed along the selected line of incision. The pouch is made from the corpus of the stomach so that true parietal cell juice is obtained. About 30% of the corpus volume is resected. The cannula is made of light-weight, biologically-inert material such as nylon or Delrin with dimensions and attachments after DeVito and Harkins [J. Appl. Physiol., 14, 138 (1959)]. Post operatively, dogs are medicated with antibiotics and an analgesic. They are allowed 2-3 months for recovery. Experiments are carried out in the following way: Dogs are fasted overnight (~18 hours) with water ad libitum prior to each experiment. The dogs are placed in a sling and a saphenous vein cannulated for drug administration. Histamine as the base (100 ug/kg/hr) and chlorpheniramine maleate (0.25 mg/kg/hr) are infused continuously (in a volume of 6 mL/hr) with a Harvard infusion pump.
Ninety minutes' infusion are allowed for the dogs to reach a steady state of acid output. At this time the drug or normal saline (control) is administered concomitantly with the secretagogue in a volume of 0.5 mL/kg over a 30 second period. When oral studies are to be carried out, the drug is administered via gastric gavage in a volume of 5 mL/kg. Infusion of the secretagogue is continued and 15 minute samples of.the gastric juice are taken for 4.5 hours. Each sample is measured to the nearest 0.5 mL and titratable acidity is determined by titrating a 1 mL sample to pH 7.0 with 0.2N NaOH, using an Autoburet and an electrometric pH meter (Radiometer). Titratable acid output is calculated in microequivalents by multiplying the volume in milliliters by the acid concentration in milliequivalents per liter.
as §1, with “and ED50” for “and ED”, “analyses. From 3 to 5 dogs” for “analyses. At least three rats”, “each dose” for “each dosage”

gastric secretion [1] = assay: Inhibition of gastric secretion by the oral route, dog; format: in vivo
gastric secretion [2] = assay: Inhibition of gastric secretion by the oral route, rat; format: in vivo
gastric erosions = assay: HCl-induced gastric erosions in rats, pretreatment with compound alone or with pepstatin; format: in vivo, Long Evans rats; conditions: probit analysis
Experimental: Adult male, Long Evans rats weighing 280-300 g (Blue Spruce Farms, Alton, New York) were used. The animals were individually caged and food and water were removed 24 and 18 hours, respectively, prior to testing. On the following day, the test compound was administered orally to the animals 30 minutes before 1.0 mL of 0.75N HC1 was instilled into the stomach by gavage. Animals treated with the combination of the test compound and pepstatin received the test compound 30 minutes before, and a fixed amount of pepstatin (20 mg/kg po) 10 minutes before, the hydrochloric acid was administered. […] One hour after receiving the HC1 solution, the animals were sacrificed with an intraperitoneal injection of 0.2 mL of T-6r-, a euthanasia solution (National Laboratories Corp.).
The stomachs were photographed with a Polaroid" Close Up camera (Polaroid Corporation) and scoring was determined from the photographs. For scoring purposes, only those erosions with a minimum length of 1 mm were considered. The severity of gastric ulceration was defined for each animal as the sum of the maximum continuous lengths (in mm) of the erosions satisfying the above criteria. […]
Data were analyzed using the t-test for unpaired data and ED50 values were calculated from the dose response data using probit analysis [Finney, Probit Analysis, 3rd ed., University Press, Cambridge, England (1971)]. […]

ulcer formation = conditions: two or more days of pretreatment, single agent; cited from earlier work
gastric acid secretion = conditions: normal volunteers and patients with duodenal ulcer; cited from earlier work
pepsin = conditions: gastric ulcer; cited from earlier work
[3] = Rattus norvegicus, ip, Route of Administration i.p., read-out: ED50
[4] = Rattus norvegicus, sc, Route of Administration s.c., read-out: ED50

Compound	Potency Ratio (cimetidine = 1.0) (acid output)	ED50 (Gastric Acid Output; [4])	also measured
CN(C)Cc1ccc(CSCCNC2=NS(=O)(=O)N=C2NCCSCc2ccc(CN(C)C)o2)o1 [11 B]	11	–	ED50 (Gastric Acid Output; Route of Administration i.p.): 0.69 (0.31-1.33) μmoles/kg
NC1=NS(=O)(=O)N=C1NCCCOc1cccc(CN2CCCC2)c1 [146 a]	~20	–	ED50 (Gastric Acid Output; Route of Administration s.c.): 0.023 (0.0091-0.046) μmoles/kg
CCNC1=NS(=O)(=O)N=C1NCCSCc1ccc(CN(C)C)o1 [Example 12, 3-{2-[(5-Dimethylaminomethyl-2-furyl)methylthio]ethyl-amino]-4-ethylamino-1,2,5-thiadiazole 1,1-dioxide]	10	–	ED50 (Gastric Acid Output; [3]): 0.28 µmol/kg
CNc1n[s+]([O-])nc1NCCSCc1ccc(CN(C)C)o1 (centres unmarked) [Example 18, 3-{2-[(5-Dimethylaminomethyl-2-furyl)methylthio]ethylamino}-4-methylamino-1,2,5-thiadiazole 1-oxide]	18	0.38 µmol/kg	–
CNC1=NS(=O)(=O)N=C1NCCSCc1csc(NC(=N)N)n1 [Example 31, 3-{2-[(2-Guanidinothiazol-4-yl)methylthio)ethylamino}-4-methylamino-1,2,5-thiadiazole 1,1-dioxide]	13	–	ED50 (Gastric Acid Output; [3]): 0.41 µmol/kg
NC(N)=Nc1nc(CSCCNC2=NS(=O)(=O)N=C2N)cs1 [Example 35, 3-Amino-4-{2-[(2-guanidinothiazol-4-yli)methylthio]ethyl-amino}-1,2,5-thiadiazole 1,1-dioxide]	20	0.08 µmol/kg	–
CNC1=NS(=O)(=O)N=C1NCCSCc1ccc(CN(C)C)s1 [Example 65, 3-{2-[(5-Dimethylaminomethyl-2-thienyl)methylthio]ethyl-amino}-4-methylamino-1,2,5-thiadiazole 1,I-dioxide]	10	0.07 µmol/kg	–
CN(C)Cc1cccc(OCCCNc2n[s+]([O-])nc2N)c1 (centres unmarked) [Example 118, 3-Amino-4-[3-(3-dimethylaminomethylphenoxy)propylamino]-1,2,5-thiadiazole 1-oxide]	10	0.066 µmol/kg	–
CN(C)Cc1ccc(CSCCNC2=NS(=O)(=O)N=C2NCc2ccc3c(c2)OCO3)s1 [Example 135, 3-{2-[(5-Dimethylaminomethyl-2-thienyl)methylthio]ethylamino}-4-(3,4-methylenedioxybenzylamino)-1,2,5-thiadiazole 1,1-dioxide]	–	0.57 µmol/kg	–
[O-][s+]1nc(NCCCOc2cccc(CN3CCCCC3)c2)c(NCc2cccnc2)n1 (centres unmarked) [Example 149, 3-[(3-Pyridyl)methylamino]-4-[3-(3-piperidinomethylphenoxy)-proavlamino]-1,2,5-thiadiazole1-oxide]	10	~0.08 µmol/kg	–
Nc1n[s+]([O-])nc1NCCSCc1ccc(CN2CCCCC2)o1 (centres unmarked) [Example 151, 3-Amino-4-{2-.[(5-piperidinomethyl-2-furyl)methylthio]-ethylamino)-1,2,5-thiadiazole 1-oxide]	–	0.9 µmol/kg	–
CNC(=C[N+](=O)[O-])NCCSCc1ccc(CN(C)C)o1 [Ranitidine, ranitidine]	–	–	times as potent as cimetidine as an inhibitor of gastric secretion (gastric secretion [1]): ~6 times; times as potent as cimetidine as an inhibitor of gastric secretion (gastric secretion [2]): about 4 times; ED50 (gastric erosions; Rattus norvegicus, po, compound alone, orally 30 minutes before 1.0 mL of 0.75N HCl, read-out: ED50 (mg/kg) for Inhibition of Ulcer Formation Alone): 123 mg/kg; ED50 (mg/kg) for Inhibition of Ulcer Formation with Pepstatin (gastric erosions; compound orally 30 minutes before and pepstatin 20 mg/kg po 10 minutes before HCl): 104 mg/kg
CC1(C)[C@@H](OC(=O)CCC(=O)O)CC[C@]2(C)[C@H]3C(=O)C=C4[C@@H]5C[C@@](C)(C(=O)O)CC[C@]5(C)CC[C@@]4(C)[C@]3(C)CC[C@@H]12 [carbenoxolone]	–	–	ulcer formation (ulcer formation): significantly decreased ulcer formation
CN/C(=N/CCSCc1nc[nH]c1C)NC#N [cimetidine]	–	–	ulcer formation (ulcer formation): significantly decreased ulcer formation; basal and stimulated gastric acid secretion (gastric acid secretion): antagonize both basal and stimulated gastric acid secretion; ED50 (acid output; Canis lupus familiaris, po, read-out: oral ED50): ~3.3 µmol/kg
sucralfate	–	–	benefit in patients with gastric ulcer (pepsin): none
